Data as given in patent US11261189B2, “Substituted 2,4 diamino-quinoline as new medicament for fibrosis, autophagy and cathepsins B (CTSB), L (CTSL) and D (CTSD) related diseases” (Genoscience Pharma, priority 2018, dated 2022).
Counter-ions that a name gives are not always drawn.

Molecular target: T1, cathepsin D (CTSD) (Homo sapiens, UniProt P07339)
T1 construct: cell lysates (1 μg of total proteins) were pre-incubated with citrate buffer pH 4.0; endogenous in cells; host or cells: HepG2
Test: Cathepsin D (CTSD) peptidase activity in lysates of treated HepG2 cells (MOCAc quenched fluorogenic substrate)
Assay type: cell-based
Experimental: Lysosomal functions was investigated in a hepatocellular carcinoma (HCC) cell line HepG2 after 6 hours and 24 hours of treatment with compound 2-3 (the hydrochloride salt form of compound 2-2) using functional assays of some lysosomal enzymes activity: two cysteine proteinases: cathepsin B (CTSB) and cathepsin L (CTSL), and one aspartic proteinase: cathepsin D (CTSD). Two sets of three concentrations of compound 2-3 (1 μM, 2 μM, and 4 μM for 6 hours, and 0.5 μM, 1 μM and 2 μM for 24 hours) were tested at least in triplicate and four independent experiments were performed. Salinomycin (7.5 μM for 6 hours and 24 hours) was used as a positive control.
The HepG2 cell line was maintained in DMEM (Dulbecco's Modified Eagle Media) high glucose (Cat #L0103-500, Dutscher) containing 1% penicillin-streptomycin (Cat #P06-07100, Dutscher) and 10% FBS (Fetal Bovine Serum) (Cat #11543407, Life Technologies). Cells were cultured at 37° C. with 5% CO2.
The day before the experiment, 6-well plates (Cat #353046, Dutscher) with 250,000 cells in 2.7 mL of medium per well were prepared.
Compound 2-3 was dissolved with filtrated H2O mQ to make a 10 mM stock solution and serial working solutions (10× solutions) were prepared with the diluent (=culture medium with 0.4% H2O mQ) at 5 μM, 10 μM, 20 μM and 40 μM: the “dilution 1” is made from the 10 mM stock solution in the culture medium and the following serial dilutions were made in the diluent to maintain a constant percentage of H2O.
Salinomycin [CAS 53003-10-4] was used as positive control and was dissolved with methanol to make a 10 mM stock solution and a 10× solution at 75 μM was prepared with the culture medium. […]
After 6 hours or 24 hours of cells treatment, the medium was removed from each well. […] Total protein concentration was assessed using the Bradford reagent (Cat #B6916-500ML, Sigma-Aldrich) and cellular lysates were stored at −80° C. until catalytic activity measurement. […]

T1 sequence (P07339 65-412): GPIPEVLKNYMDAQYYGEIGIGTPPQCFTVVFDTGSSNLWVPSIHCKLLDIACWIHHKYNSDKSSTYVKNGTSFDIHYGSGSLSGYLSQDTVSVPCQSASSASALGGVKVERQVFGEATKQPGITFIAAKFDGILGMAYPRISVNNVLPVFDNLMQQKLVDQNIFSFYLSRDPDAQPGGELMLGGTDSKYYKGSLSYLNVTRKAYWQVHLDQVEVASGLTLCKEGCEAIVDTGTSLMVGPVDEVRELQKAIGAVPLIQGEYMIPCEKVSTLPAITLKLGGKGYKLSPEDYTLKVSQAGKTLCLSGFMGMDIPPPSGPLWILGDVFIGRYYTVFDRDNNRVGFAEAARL

CC(C)(C)NC1CCN(c2cc(NCc3ccc(Cl)cc3)nc3ccccc23)CC1 [2-3, 2-(4-chlorobenzylamino)-4-(4-tert-butylaminopiperidin-1-yl)-quinoline Hydrochloride Salt]
CTSD activity versus NT (HepG2, 4 μM, 6 hours of treatment): 60.6% | inhibition of cathepsin D (CTSD) compare to the control (HepG2, 4 μM for 6 hours and 2 μM for 24 hours, p<0.05): statistically significant
